Assay results reported in patent publication US20100291591A1, “NOVEL PLATING MEDIA” (priority 2007, published 2010).

System: S. aureus
Assay: Tolerance of S. aureus towards ELF phosphate in S. aureus plating media
Type: cell-based
Conditions: for Colony Growth: visual inspection relative to media without ELF phosphate
From the text: Varying concentrations of ELF® phosphate in S. aureus plating media were used to determine the effect on growth and sensitivity of S. aureus to ELF® phosphate. Colony growth in the presence of ELF® phosphate was compared to colony growth in media without ELF® phosphate.

For `O=P(O)(O)O.O=c1[nH]c(-c2cc(Cl)ccc2O)nc2ccc(Cl)cc12` [ELF ® Phosphate, 6-chloro-2-(5-chloro-2-hydroxyphenyl)-quinazolin-4(3H)-one phosphate], the “Colony Growth” value (ELF phosphate 0.080 g/L) was “Normal”, the “Colony Growth” value (ELF phosphate 0.200 g/L) was “Normal” and the “Colony Growth” value (ELF phosphate 0.400 g/L) was “Normal”. For the same molecule, the “Colony Growth” value (ELF phosphate 0.600 g/L) was “Normal”, the “effect of concentration on growth” value (S. aureus plating media, 0.080-0.600 g/L) was “no effect on growth” and the “inhibition of the growth of S. aureus strains” value (concentrations of 500 mg/L and higher) was “do not significantly inhibit”.
